Measured values taken from ChEMBL document CHEMBL1128373, “A-ring ortho-disubstituted aporphine derivatives as potential agonists or antagonists at serotonergic 5-HT1A receptors” (J Med Chem, 1995).
Calls of active or inactive are those of the source. No cut-off for these calls is given here.

Columns and labels:
Format in all cases: tissue-based
Conditions in all cases: Cavia porcellus, target entry is the homologue from another species
[1] = molecular target: T1, 5-hydroxytryptamine receptor 1A (Homo sapiens) (UniProt P08908); test: Ability to antagonize electrical induced contractile responses in Guinea pig ileum for 5-HT1A receptor.
T1 sequence (whole entry): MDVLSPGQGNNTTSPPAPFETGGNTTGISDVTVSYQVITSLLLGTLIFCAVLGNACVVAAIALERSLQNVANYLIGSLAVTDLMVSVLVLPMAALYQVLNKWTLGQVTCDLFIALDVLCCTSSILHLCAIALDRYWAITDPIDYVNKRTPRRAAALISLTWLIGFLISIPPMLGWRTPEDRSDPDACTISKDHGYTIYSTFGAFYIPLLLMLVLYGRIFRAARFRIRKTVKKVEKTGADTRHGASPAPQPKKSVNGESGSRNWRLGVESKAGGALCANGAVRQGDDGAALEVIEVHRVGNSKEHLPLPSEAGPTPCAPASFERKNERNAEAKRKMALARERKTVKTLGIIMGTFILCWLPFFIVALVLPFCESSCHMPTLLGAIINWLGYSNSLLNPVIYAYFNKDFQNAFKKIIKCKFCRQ

[2] = molecular target: T1, 5-hydroxytryptamine receptor 1A (Homo sapiens); test: Ability to antagonize Acetylcholine induced contractile responses in Guinea pig ileum for 5-HT1A receptor.
[3] = molecular target: T1, 5-hydroxytryptamine receptor 1A (Homo sapiens); test: Ability to antagonize Acetylcholine induced contractile responses in Guinea pig ileum for 5-HT1A receptor. Inactive at dose level of 1.0 uM
[4] = molecular target: T1, 5-hydroxytryptamine receptor 1A (Homo sapiens); test: Ability to antagonize electrical induced contractile responses in Guinea pig ileum for 5-HT1A receptor; Inactive at dose level of 1.0 uM
[5] = molecular target: T1, 5-hydroxytryptamine receptor 1A (Homo sapiens); test: Ability to antagonize electrical induced contractile responses in Guinea pig ileum for 5-HT1A receptor. Inactive at dose level of 1.0 uM

SMILES	ED50 [1]	ED50 [2]	ED50 [3]	ED50 [4]	ED50 [5]
Cc1ccc2c(c1O)-c1cccc3c1[C@@H](C2)N(C)CC3	0.05 µM	–	–	–	–
COc1cc2c(cc1C)-c1cccc3c1C(C2)N(C)CC3 (single isomer, unassigned; (+))	5.4 µM	24.9 µM	–	–	–
Cc1cc2c(cc1O)-c1cccc3c1C(C2)N(C)CC3 (single isomer, unassigned; (+))	–	–	inactive	inactive	–
Cc1cc2c(cc1O)CC1c3c(cccc3-2)CCN1C (single isomer, unassigned; (+))	–	–	inactive	–	inactive
COc1cc2c(cc1C)-c1cccc3c1C(C2)N(C)CC3 (single isomer, unassigned; (-))	5 µM	2.7 µM	–	–	–
Cc1cc2c(cc1O)-c1cccc3c1C(C2)N(C)CC3 (single isomer, unassigned; (-))	–	–	inactive	–	inactive
Cc1cc2c(cc1O)CC1c3c(cccc3-2)CCN1C (single isomer, unassigned; (-))	–	–	inactive	–	inactive
COc1cc2c(cc1C)CC1c3c(cccc3-2)CCN1C (stereo in doubt; (+)-9)	5.9 µM	36.6 µM	–	–	–
COc1cc2c(cc1C)CC1c3c(cccc3-2)CCN1C (stereo in doubt; (-)-9)	2.6 µM	11.4 µM	–	–	–
